Assay results published in ChEMBL document CHEMBL5291721, “A preclinical secondary pharmacology resource illuminates target-adverse drug reaction associations of marketed drugs” (Nat Commun, 2023).

How the values were obtained:
[1] = biological target: Gamma-aminobutyric acid receptor subunit alpha-1 (Rattus norvegicus, UniProt P62813)
[2] = biological target: Sodium-dependent noradrenaline transporter (Homo sapiens, UniProt P23975)
[3] = biological target: T1, Type-1 angiotensin II receptor (Homo sapiens, UniProt P30556)
T1 sequence (P30556 whole entry): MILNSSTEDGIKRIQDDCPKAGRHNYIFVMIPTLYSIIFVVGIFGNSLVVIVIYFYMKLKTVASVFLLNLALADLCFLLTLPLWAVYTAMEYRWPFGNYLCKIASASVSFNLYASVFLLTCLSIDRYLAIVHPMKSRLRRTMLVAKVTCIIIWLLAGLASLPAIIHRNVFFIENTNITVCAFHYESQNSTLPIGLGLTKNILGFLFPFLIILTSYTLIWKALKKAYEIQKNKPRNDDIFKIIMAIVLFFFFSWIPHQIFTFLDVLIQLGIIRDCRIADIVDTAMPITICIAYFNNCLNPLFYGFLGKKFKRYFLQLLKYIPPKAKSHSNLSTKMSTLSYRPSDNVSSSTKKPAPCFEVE

Glucocorticoid receptor = biological target: T2, Glucocorticoid receptor (Homo sapiens, UniProt P04150)
T2 sequence (P04150 whole entry): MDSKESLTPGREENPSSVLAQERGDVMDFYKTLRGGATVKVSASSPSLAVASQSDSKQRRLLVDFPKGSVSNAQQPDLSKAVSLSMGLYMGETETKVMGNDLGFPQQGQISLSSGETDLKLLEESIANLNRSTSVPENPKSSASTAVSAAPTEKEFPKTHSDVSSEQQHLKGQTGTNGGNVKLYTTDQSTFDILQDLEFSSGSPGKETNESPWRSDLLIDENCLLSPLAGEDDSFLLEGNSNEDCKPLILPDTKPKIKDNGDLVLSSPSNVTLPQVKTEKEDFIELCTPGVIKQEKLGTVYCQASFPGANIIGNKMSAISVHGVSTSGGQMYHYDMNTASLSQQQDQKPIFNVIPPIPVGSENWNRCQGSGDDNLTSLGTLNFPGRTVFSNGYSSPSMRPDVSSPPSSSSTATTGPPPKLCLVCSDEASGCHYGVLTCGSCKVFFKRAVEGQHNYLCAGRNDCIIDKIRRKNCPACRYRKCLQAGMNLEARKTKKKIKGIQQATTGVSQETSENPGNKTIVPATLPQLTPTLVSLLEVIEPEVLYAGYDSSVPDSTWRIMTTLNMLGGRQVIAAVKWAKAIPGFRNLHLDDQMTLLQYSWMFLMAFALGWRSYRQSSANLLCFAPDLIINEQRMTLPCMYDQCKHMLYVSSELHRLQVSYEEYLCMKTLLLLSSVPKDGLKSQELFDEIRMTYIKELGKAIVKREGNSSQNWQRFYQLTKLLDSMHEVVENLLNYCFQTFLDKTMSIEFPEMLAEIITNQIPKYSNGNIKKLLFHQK

[4] = biological target: T3, Muscarinic acetylcholine receptor M2 (Homo sapiens, UniProt P08172); assay type: functional, cell-based
T3 sequence (P08172 whole entry): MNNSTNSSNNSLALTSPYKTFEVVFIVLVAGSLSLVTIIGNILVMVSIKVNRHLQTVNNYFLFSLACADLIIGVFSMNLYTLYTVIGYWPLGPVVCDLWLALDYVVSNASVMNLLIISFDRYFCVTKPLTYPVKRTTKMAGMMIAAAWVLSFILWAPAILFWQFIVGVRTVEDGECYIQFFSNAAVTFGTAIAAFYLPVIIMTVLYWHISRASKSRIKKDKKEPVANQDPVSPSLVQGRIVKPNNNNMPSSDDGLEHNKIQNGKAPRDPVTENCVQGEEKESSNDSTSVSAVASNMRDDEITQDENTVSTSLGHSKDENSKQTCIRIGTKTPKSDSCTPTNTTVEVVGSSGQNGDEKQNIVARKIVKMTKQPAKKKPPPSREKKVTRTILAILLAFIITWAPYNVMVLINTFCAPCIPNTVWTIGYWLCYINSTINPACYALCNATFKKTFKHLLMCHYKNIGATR

D(1A) dopamine receptor = D(1A) dopamine receptor (Homo sapiens, UniProt P21728); assay type: functional, cell-based
Sequence of D(1A) dopamine receptor (P21728 whole entry): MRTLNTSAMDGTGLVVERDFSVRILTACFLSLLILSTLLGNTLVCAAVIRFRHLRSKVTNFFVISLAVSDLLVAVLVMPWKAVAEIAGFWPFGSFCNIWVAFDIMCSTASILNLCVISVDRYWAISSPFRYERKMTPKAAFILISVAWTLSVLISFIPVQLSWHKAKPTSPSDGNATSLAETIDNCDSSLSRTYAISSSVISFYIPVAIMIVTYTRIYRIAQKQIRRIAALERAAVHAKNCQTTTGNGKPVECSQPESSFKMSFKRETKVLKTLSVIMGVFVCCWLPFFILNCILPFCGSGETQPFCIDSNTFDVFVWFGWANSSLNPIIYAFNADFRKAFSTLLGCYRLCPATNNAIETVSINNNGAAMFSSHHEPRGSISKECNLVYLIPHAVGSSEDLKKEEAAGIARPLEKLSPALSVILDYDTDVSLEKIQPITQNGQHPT

[5] = biological target: Voltage-gated inwardly rectifying potassium channel KCNH2 (Homo sapiens, UniProt Q12809); assay type: functional; conditions: read-out: AC50
Sequence of Voltage-gated inwardly rectifying potassium channel KCNH2 (Q12809 whole entry): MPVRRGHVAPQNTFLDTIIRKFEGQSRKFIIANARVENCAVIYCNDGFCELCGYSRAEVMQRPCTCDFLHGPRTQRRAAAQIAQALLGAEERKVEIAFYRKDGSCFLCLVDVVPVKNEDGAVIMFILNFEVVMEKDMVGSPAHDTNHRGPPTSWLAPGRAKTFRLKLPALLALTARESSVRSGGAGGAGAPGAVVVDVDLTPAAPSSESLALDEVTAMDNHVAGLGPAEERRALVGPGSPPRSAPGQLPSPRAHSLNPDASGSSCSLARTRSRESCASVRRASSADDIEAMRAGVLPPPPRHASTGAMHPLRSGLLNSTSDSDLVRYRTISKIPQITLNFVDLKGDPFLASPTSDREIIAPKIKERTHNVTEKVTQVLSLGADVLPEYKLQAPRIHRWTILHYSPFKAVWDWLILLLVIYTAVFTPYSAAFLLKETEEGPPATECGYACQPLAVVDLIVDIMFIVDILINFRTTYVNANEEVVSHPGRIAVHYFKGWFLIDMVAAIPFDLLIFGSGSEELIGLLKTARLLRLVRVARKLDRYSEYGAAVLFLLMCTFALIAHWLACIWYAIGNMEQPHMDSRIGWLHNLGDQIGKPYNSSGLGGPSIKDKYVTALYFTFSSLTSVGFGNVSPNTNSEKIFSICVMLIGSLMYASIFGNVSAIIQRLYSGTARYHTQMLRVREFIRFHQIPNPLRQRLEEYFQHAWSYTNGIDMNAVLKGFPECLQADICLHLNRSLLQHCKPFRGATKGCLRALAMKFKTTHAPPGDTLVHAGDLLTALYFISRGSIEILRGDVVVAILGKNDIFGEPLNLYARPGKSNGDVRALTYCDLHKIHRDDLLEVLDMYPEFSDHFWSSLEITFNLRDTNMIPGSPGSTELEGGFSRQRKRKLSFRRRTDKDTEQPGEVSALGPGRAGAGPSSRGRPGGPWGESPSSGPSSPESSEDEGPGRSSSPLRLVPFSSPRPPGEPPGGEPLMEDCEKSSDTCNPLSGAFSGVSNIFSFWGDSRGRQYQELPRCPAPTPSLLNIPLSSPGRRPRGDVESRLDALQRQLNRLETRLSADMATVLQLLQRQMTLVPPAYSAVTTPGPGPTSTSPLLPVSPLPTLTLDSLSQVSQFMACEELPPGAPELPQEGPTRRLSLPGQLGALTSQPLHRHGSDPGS

[6] = biological target: 5-hydroxytryptamine receptor 2B (Homo sapiens, UniProt P41595); assay type: functional, cell-based
Sequence of 5-hydroxytryptamine receptor 2B (P41595 whole entry): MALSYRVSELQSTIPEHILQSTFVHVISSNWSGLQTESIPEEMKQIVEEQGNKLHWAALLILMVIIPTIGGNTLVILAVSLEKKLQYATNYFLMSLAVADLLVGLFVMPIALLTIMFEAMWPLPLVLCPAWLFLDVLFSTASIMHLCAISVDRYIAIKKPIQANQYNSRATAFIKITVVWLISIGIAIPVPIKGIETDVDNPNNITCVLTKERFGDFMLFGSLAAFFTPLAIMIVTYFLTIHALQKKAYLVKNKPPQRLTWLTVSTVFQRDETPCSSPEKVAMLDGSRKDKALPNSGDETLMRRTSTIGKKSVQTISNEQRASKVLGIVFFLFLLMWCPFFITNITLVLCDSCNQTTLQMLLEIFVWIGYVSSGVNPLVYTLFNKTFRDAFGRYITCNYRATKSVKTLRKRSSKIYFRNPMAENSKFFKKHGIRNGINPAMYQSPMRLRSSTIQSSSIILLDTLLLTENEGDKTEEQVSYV

[7] = biological target: T4, 5-hydroxytryptamine receptor 1A (Homo sapiens, UniProt P08908); assay type: functional, cell-based
T4 sequence (P08908 whole entry): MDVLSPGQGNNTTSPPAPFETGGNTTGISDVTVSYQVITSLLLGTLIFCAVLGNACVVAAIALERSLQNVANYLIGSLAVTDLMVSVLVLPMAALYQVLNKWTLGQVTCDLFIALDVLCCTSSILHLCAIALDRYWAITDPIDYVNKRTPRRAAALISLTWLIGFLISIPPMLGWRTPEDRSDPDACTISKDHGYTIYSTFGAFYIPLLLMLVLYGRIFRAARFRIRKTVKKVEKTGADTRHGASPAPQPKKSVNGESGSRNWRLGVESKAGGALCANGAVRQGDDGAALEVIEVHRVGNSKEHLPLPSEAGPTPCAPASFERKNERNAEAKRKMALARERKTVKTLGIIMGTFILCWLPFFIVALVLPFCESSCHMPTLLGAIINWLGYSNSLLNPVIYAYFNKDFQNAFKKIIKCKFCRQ

[8] = biological target: Voltage-dependent L-type calcium channel subunit alpha-1C (Rattus norvegicus, UniProt P22002); assay type: functional
[9] = biological target: Sodium-dependent serotonin transporter (Homo sapiens, UniProt P31645)
Sequence of Sodium-dependent serotonin transporter (P31645 whole entry): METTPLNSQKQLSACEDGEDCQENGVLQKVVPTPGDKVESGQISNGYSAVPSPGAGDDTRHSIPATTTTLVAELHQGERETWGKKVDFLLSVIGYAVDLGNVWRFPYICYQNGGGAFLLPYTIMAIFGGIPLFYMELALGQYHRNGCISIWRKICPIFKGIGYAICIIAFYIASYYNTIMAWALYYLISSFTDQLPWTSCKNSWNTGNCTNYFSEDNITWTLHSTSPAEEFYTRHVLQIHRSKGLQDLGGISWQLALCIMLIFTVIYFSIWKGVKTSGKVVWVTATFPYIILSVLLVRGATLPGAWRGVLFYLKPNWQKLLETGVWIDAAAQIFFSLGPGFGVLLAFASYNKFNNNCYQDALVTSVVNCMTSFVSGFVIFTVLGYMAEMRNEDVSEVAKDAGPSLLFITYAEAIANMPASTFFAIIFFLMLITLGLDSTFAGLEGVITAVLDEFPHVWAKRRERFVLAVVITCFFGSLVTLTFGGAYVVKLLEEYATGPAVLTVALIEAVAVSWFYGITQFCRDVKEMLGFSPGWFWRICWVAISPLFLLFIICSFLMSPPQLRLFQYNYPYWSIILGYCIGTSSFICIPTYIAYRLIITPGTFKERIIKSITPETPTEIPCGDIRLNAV
Further: assay procedure not described here.

Sequence of Gamma-aminobutyric acid receptor subunit alpha-1 (P62813 whole entry): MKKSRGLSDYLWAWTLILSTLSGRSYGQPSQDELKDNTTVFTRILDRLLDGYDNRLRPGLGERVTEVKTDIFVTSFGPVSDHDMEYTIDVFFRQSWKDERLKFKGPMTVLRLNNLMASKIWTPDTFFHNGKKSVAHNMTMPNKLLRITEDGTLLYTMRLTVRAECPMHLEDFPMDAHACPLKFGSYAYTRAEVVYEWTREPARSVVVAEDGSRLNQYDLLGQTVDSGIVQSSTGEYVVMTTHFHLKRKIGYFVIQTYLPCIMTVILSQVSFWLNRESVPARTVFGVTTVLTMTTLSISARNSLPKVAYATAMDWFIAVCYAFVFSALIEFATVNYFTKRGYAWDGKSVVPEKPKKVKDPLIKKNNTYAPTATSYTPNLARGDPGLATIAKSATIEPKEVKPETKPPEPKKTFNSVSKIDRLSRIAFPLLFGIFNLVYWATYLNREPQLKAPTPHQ
Sequence of Sodium-dependent noradrenaline transporter (P23975 whole entry): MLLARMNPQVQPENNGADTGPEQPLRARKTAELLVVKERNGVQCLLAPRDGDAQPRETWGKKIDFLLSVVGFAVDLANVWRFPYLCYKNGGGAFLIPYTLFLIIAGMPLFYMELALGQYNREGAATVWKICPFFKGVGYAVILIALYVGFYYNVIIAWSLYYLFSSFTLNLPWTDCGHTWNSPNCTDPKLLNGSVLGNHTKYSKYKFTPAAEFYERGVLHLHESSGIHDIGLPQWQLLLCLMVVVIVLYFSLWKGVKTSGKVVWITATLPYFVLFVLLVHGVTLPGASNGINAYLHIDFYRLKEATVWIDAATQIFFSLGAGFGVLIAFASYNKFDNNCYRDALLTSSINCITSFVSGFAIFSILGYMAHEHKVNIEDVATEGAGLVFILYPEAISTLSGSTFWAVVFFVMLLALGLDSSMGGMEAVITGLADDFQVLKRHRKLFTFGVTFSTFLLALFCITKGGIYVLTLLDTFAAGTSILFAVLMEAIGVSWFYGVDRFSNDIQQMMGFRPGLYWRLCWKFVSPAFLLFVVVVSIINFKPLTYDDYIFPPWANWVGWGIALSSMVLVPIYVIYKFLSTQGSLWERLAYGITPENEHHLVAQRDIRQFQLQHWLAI

SMILES | AC50 [1] [µM] | AC50 [2] [µM] | AC50 [3] [µM] | AC50 (Glucocorticoid receptor) [µM] | AC50 [4] [µM] | AC50 (D(1A) dopamine receptor) [µM] | AC50 [5] [µM] | AC50 [6] [µM] | AC50 [7] [µM] | AC50 [8] [µM] | AC50 [9] [µM]
CC(C)Cn1cnc2c(N)nc3ccccc3c21 [IMIQUIMOD] | > 10 | > 30 | > 10 | > 10 | > 10 | > 10 | 28.3 | 13.8 | > 10 | > 10 | –
CN1C(=O)OC(C)(C)C1=O [TRIMETHADIONE] | > 10 | > 10 | > 10 | > 10 | > 10 | > 10 | > 30 | > 10 | – | > 10 | –
Cn1c(=O)c2c(ncn2CC2OCCO2)n(C)c1=O [DOXOFYLLINE] | > 30 | > 30 | > 30 | – | > 30 | > 30 | > 30 | > 30 | > 30 | > 30 | –
CC=CC(=O)N(CC)c1ccccc1C | > 10 | > 10 | > 10 | > 10 | > 10 | > 10 | > 30 | > 10 | – | > 10 | –
COc1ccc2c3c1O[C@H]1[C@@H](O)C=C[C@H]4[C@@H](C2)N(C)CC[C@@]341 [CODEINE] | > 30 | > 30 | > 30 | – | > 10 | > 10 | > 30 | > 10 | > 10 | > 10 | > 30
C[C@]12CC[C@H]3[C@@H](CCC4=CC(=O)CC[C@@]43C)[C@@H]1CC[C@@H]2O [TESTOSTERONE] | > 10 | > 10 | > 10 | 0.246 | > 10 | > 30 | – | > 10 | > 10 | > 10 | –
N#Cc1ccc([C@H]2CCc3cncn32)c(F)c1 [OSILODROSTAT] | > 10 | > 10 | > 10 | – | – | – | 19.7 | – | – | > 10 | –
CNS(=O)(=O)Cc1ccc2[nH]cc(CCN(C)C)c2c1 | > 30 | > 10 | > 30 | > 30 | > 30 | > 30 | > 30 | > 10 | – | > 10 | –
C#C[C@]1(O)CC[C@H]2[C@@H]3CCC4=Cc5oncc5C[C@]4(C)[C@H]3CC[C@@]21C [DANAZOL] | > 10 | – | > 10 | 0.111 | – | – | > 30 | > 10 | > 10 | > 10 | –
CCCN(CCC)C(=O)C(CCC(=O)O)NC(=O)c1ccccc1 (centres undefined) [PROGLUMIDE] | > 10 | > 30 | > 30 | > 30 | > 10 | > 30 | > 30 | > 10 | > 10 | > 10 | –
CN1CCN(CC/C=C2/c3ccccc3Sc3ccc(S(=O)(=O)N(C)C)cc32)CC1 [THIOTHIXENE] | > 10 | > 10 | > 30 | – | > 10 | > 30 | 1.63 | 4.9 | – | > 10 | > 10
Nc1nc(N)nc(-c2cc(Cl)ccc2Cl)n1 [IRSOGLADINE] | – | > 30 | > 30 | > 30 | > 30 | > 30 | > 30 | 22 | – | – | –
O=C(NCCN1CCOCC1)c1ccc(Cl)cc1 [MOCLOBEMIDE] | > 10 | > 10 | > 10 | – | > 10 | > 10 | > 30 | > 10 | > 10 | > 10 | –
CNC(C)CCC=C(C)C (centres undefined) [ISOMETHEPTENE] | – | > 30 | > 30 | – | – | – | > 30 | – | – | – | > 30
Cc1ccc(S(=O)(=O)NC(=O)NN2CC3CCCC3C2)cc1 (centres undefined) [GLICLAZIDE] | > 10 | > 10 | > 10 | – | > 10 | > 30 | > 30 | > 10 | > 10 | > 10 | –
NCC[C@H](O)C(=O)N[C@@H]1C[C@H](N)[C@@H](O[C@H]2O[C@H](CN)[C@@H](O)[C@H](O)[C@H]2O)[C@H](O)[C@H]1O[C@H]1O[C@H](CO)[C@@H](O)[C@H](N)[C@H]1O [AMIKACIN] | > 10 | > 10 | > 10 | > 10 | > 10 | > 10 | > 30 | > 10 | > 10 | > 10 | –
CCN(CC)C(=O)N[C@H]1C[C@@H]2c3cccc4[nH]cc(c34)C[C@H]2N(C)C1 [TERGURIDE] | > 30 | > 30 | > 30 | – | > 30 | 0.049 | 18 | 0.58 | – | – | > 30
C[C@](N)(Cc1ccc(O)c(O)c1)C(=O)O [METHYLDOPA] | > 10 | > 10 | > 10 | – | > 10 | > 30 | > 30 | > 10 | > 10 | > 10 | –
CCOC(=O)OC(C)OC1=C(C(=O)Nc2ccccn2)N(C)S(=O)(=O)c2ccccc21 (centres undefined) [AMPIROXICAM] | > 30 | > 30 | > 30 | > 30 | > 30 | > 30 | > 30 | 10 | – | > 30 | –
CCCc1nc(C(C)(C)O)c(C(=O)OCc2oc(=O)oc2C)n1Cc1ccc(-c2ccccc2-c2nnn[nH]2)cc1 [OLMESARTAN MEDOXOMIL] | > 10 | > 30 | 0.0009 | – | > 10 | > 10 | > 30 | > 10 | > 10 | > 10 | > 30
CC(=O)O[C@H]1C[C@@H]2CC[C@@H]3[C@H](CC[C@@]4(C)[C@H]3C[C@H]([N+]3(C)CCCCC3)[C@@H]4OC(C)=O)[C@@]2(C)C[C@@H]1N1CCCCC1 [VECURONIUM] | > 30 | > 30 | > 30 | – | > 30 | > 30 | 10.4 | > 30 | – | > 30 | –
